# Assay results as given in ChEMBL document CHEMBL3616380, “Photocytotoxicity, cellular uptake and subcellular localization of amidinophenylporphyrins as potential photodynamic therapeutic agents: An in vitro cell study” (Bioorg Med Chem Lett, 2015).
# Key:
# [1] = Drug uptake in lysosomes of human HK1 cells at 8 uM after 24 hrs by confocal microscopy analysis; assay type: ADME, cell-based, Lysosome; conditions: hk1, 24 h
# [2] = Cellular uptake in human HK1 cells assessed per 10^6 cells at 8 uM after 1 to 24 hrs by flow cytometry; assay type: ADME, cell-based; conditions: hk1, 8 µM
# [3] = Dark cytotoxicity against human HK1 cells assessed as cell viability at 1 to 8 uM after 24 hrs by MTT reduction assay; assay type: cell-based; conditions: hk1, 24 h
# [4] = Photocytotoxicity against human HK1 cells assessed as cell viability at 8 uM measured 24 hrs post 4 J/cm'2 irradiation by MTT reduction assay; assay type: functional; conditions: HK-1, light or radiation study, read-out: Activity
# [5] = Photocytotoxicity against human HK1 cells assessed as cell viability at 4 uM measured 24 hrs post 12 J/cm'2 irradiation by MTT reduction assay; assay type: functional; conditions: HK-1, light or radiation study, read-out: Activity
# [6] = Drug uptake in mitochondria of human HK1 cells at 8 uM after 24 hrs by confocal microscopy analysis; assay type: ADME; conditions: hk1, 24 h
Drug uptake [1],Drug uptake [2],SMILES,Activity [3],viability at 8 µM [4] [%],viability at 4 µM [5] [%],Drug uptake [6]
Active,Active,N=C(N)c1ccc(-c2c3nc(c(-c4ccc(C(=N)N)cc4)c4ccc([nH]4)c(-c4ccc(C(=N)N)cc4)c4nc(c(-c5ccc(C(=N)N)cc5)c5ccc2[nH]5)C=C4)C=C3)cc1,Non-toxic,50,90,
Active,Active,N=C(N)c1ccc(-c2c3nc(c(-c4ccc(C(=N)N)cc4)c4ccc([nH]4)c(-c4ccc(C(=N)N)cc4)c4nc(c(-c5ccc(OCCCOc6ccc(-c7c8nc(c(-c9ccccc9)c9ccc([nH]9)c(-c9ccccc9)c9nc(c(-c%10ccccc%10)c%10ccc7[nH]%10)C=C9)C=C8)cc6)cc5)c5ccc2[nH]5)C=C4)C=C3)cc1,Non-toxic,,20,

SMILES,Drug uptake [1],Drug uptake [2],Activity [3],viability at 8 µM [4] [%],viability at 4 µM [5] [%],Drug uptake [6]
C[n+]1ccc(-c2c3nc(c(-c4cc[n+](C)cc4)c4ccc([nH]4)c(-c4cc[n+](C)cc4)c4ccc([nH]4)c(-c4cc[n+](C)cc4)c4nc2C=C4)C=C3)cc1 [TMPYP4],,Active,Non-toxic,,58,Active
